What was measured:
[1] = tested on: mice, abstinence syndrome induced by cocaine, diazepam, alcohol or nicotine; assay: light box/dark box test: inhibition of the abstinence syndrome; assay type: in vivo, mouse; set-up: Time in box, dark (D) / Latent period L-D: unit not given here
Method: The light box/dark box test described by B. Costall et al. (J. Phar. Pharmacol., 1988, 40: 494-500) is used. The mouse is placed in the light zone of a box divided into two compartments, one brightly illuminated, the light box, and the other with little illumination, the dark box.
1) The number of times the mouse stands up on the hind paws in each compartment during a 5 minute period is counted (see Column 1 of Table V).
2) The activity in each compartment is given by counting the number of crossings through the squares which form the divisions of each compartment (see Column 2 of Table V).
3) The time passed in the dark box during the 5 minute counting period is determined (see Column 3 of Table 5).
4) The initial latent period is determined, that is to say the time which elapses after the animal is placed in the light box, at the start of the test, before it enters the dark box (see Column 4 of Table 5).
1) Dependency on a given treatment (diazepam, cocaine, alcohol or nicotine) employing daily administration over a period of 7 or 14 days.
Diazepam: 10 mg/kg i.p. twice per day over a period of 7 days.
Cocaine: 1 mg/kg i.p. over a period of 14 days.
Alcohol: Administered at 8% weight/volume in the drinking water over a period of 14 days. Nicotine: 0.1 mg/kg i.p. twice per day over a period of 7 days.
3) Other different groups receive, in addition to diazepam, cocaine, alcohol or nicotine, a concomitant treatment with products which are the subject of the present invention and, by way of comparison, with buspirone or ipsapirone.
The product described and the doses tested were: 4,5-dichloro-2-methyl-1-{4-[4-(2-pyrimidinyl)-1-piperazinyl]-butyl}-1H-imidazole citrate.
1 μg/kg p.o. twice per day.

[2] = tested on: conditioned avoidance response in male Wistar rats; assay: conditioned avoidance response test (inhibition of the conditioned avoidance response; anxiolytic/tranquillising activity); assay type: in vivo, rat (male Wistar); conditions: rat; for Activity % (inhibition of the conditioned avoidance response): D = 80 mg/kg, p.o., 45 min before test; for ED50: po, 0.75 h
Method: Male Wistar rats weighing 200 grammes which have been trained to jump over a barrier in an avoidance and escape cage (shuttle box) (Letica, reference LI 910 and LI 2700) within 30 seconds of their being introduced into the cage are used in this test.
The products having an anxiolytic or tranquillising activity suppress the conditioned avoidance response.
Training: day one: 11 trials at 3 minute intervals. Electric shock to the paws after 30 seconds (5 mA, 0.1 s, 10 s).
Days two and three: 2 trials per day, with the selected rats only [sum of the scores for the first day (with the exception of the first trial)>14].
Test day: groups formed by selected rats. Oral administration of the product or the vehicle 45 minutes before the start of the study.

[3] = tested on: norepinephrine-induced death in rats; assay: norepinephrine antagonism test in rats (antihypertensive activity); assay type: in vivo, rat (male Wister); conditions: for Activity % (norepinephrine antagonistic antihypertensive activity): D = 40 mg/kg, i.p., rat, norepinephrine 1.25 mg/kg i.v. after 2 hours; for ED50: Rattus norvegicus, ip, 2 h, read-out: ED50 (norepinephrine antagonistic antihypertensive activity)
Method: This activity is manifested by the protection of animals before death induced by an intravenous injection of norepinephrine, which produces a hypertensive attack in rats.
Male Wister rats weighing 200 grammes are used in this test. The product to be studied is administered intraperitoneally and 1.25 mg/kg (i.v.) of norepinephrine are administered after 2 hours.
The initial administration dose in these studies is 40 mg/kg (i.p.).

[4] = 24 h after stopping alcohol (alone, or with the named product; Ex. 42 at 1 μg/kg p.o. twice per day)
[5] = during long-term treatment with the agent (doses as E20)
[6] = during long-term treatment with the agent (doses as E20), 5 minute counting period
[7] = during long-term treatment with the agent (doses as E20), number of crossings
[8] = 24 h after stopping cocaine (alone, or with the named product; Ex. 42 at 1 μg/kg p.o. twice per day)
[9] = 24 h after stopping diazepam (alone, or with the named product; Ex. 42 at 1 μg/kg p.o. twice per day)
[10] = 24 h after stopping nicotine (alone, or with the named product; Ex. 42 at 1 μg/kg p.o. twice per day)
[11] = during long-term treatment: cocaine 1 mg/kg i.p. 14 days, diazepam 10 mg/kg i.p. twice per day 7 days, alcohol 8% w/v drinking water 14 days, nicotine 0.1 mg/kg i.p. twice per day 7 days

## CCO [Alcohol]
[1]; [4]
  Activity within 5 min period, dark box (D): 167
  Activity within 5 min period, light box (L): 6
  Latent period L-D: 2
  Time in box, dark (D): 84
[1]; [5]
  Latent period L-D: 28
[1]; [6]
  Time in box, dark (D): 28
[1]; [7]
  Activity within 5 min period, dark box (D): 28
  Activity within 5 min period, light box (L): 80
[1]; mouse, in vivo
  Number of times standing erect within 5 min. period, dark box (D): 22
  Number of times standing erect within 5 min. period, light box (L): 72
[1]; mouse, in vivo, po
  Number of times standing erect within 5 min. period, dark box (D): 147
  Number of times standing erect within 5 min. period, light box (L): 5

## O=C1CC2(CCCC2)CC(=O)N1CCCCN1CCN(c2ncccn2)CC1 [Buspirone]
[2]
  Activity % (inhibition of the conditioned avoidance response): 99%
[1]; [4]
  Activity within 5 min period, dark box (D): 75
  Activity within 5 min period, light box (L): 15
  Latent period L-D: 7
  Number of times standing erect within 5 min. period, dark box (D): 80
  Number of times standing erect within 5 min. period, light box (L): 18
  Time in box, dark (D): 62
[1]; [8]
  Activity within 5 min period, dark box (D): 90
  Activity within 5 min period, light box (L): 18
  Latent period L-D: 2
  Number of times standing erect within 5 min. period, dark box (D): 98
  Number of times standing erect within 5 min. period, light box (L): 10
  Time in box, dark (D): 70
[1]; [9]
  Activity within 5 min period, dark box (D): 100
  Activity within 5 min period, light box (L): 12
  Latent period L-D: 2
  Number of times standing erect within 5 min. period, dark box (D): 88
  Number of times standing erect within 5 min. period, light box (L): 9
  Time in box, dark (D): 72
[1]; [10]
  Activity within 5 min period, dark box (D): 85
  Activity within 5 min period, light box (L): 20
  Latent period L-D: 8
  Number of times standing erect within 5 min. period, dark box (D): 80
  Number of times standing erect within 5 min. period, light box (L): 12
  Time in box, dark (D): 65
[1]; induced by diazepam and cocaine
  abstinence syndrome: maintains the abstinence syndrome
[1]; treatment with alcohol and nicotine stopped
  abstinence syndrome: an abstinence syndrome, i.e. anxiogenesis, no longer exists
[1]; treatment with alcohol stopped
  inhibition of anxiogenic response parameters: significantly inhibits only a few anxiogenic response parameters

## Clc1cccc(Cl)c1N=C1NCCN1 [Clonidine, reference compound]
[3]
  Activity % (norepinephrine antagonistic antihypertensive activity): 100%
  ED50: 1.58 mg/kg

## COC(=O)[C@H]1[C@@H](OC(=O)c2ccccc2)C[C@@H]2CC[C@H]1N2C [Cocaine]
[1]; [8]
  Activity within 5 min period, dark box (D): 149
  Activity within 5 min period, light box (L): 10
  Latent period L-D: 2
  Number of times standing erect within 5 min. period, dark box (D): 122
  Number of times standing erect within 5 min. period, light box (L): 7
  Time in box, dark (D): 83
[1]; [5]
  Latent period L-D: 18
  Number of times standing erect within 5 min. period, dark box (D): 38
[1]; [6]
  Time in box, dark (D): 30
[1]; [7]
  Activity within 5 min period, dark box (D): 30
  Activity within 5 min period, light box (L): 68
[1]; [11]
  Number of times standing erect within 5 min. period, light box (L): 60

## CN1C(=O)CN=C(c2ccccc2)c2cc(Cl)ccc21 [Diazepam]
[1]; [9]
  Activity within 5 min period, dark box (D): 164
  Activity within 5 min period, light box (L): 5
  Latent period L-D: 1.8
  Number of times standing erect within 5 min. period, dark box (D): 146
  Number of times standing erect within 5 min. period, light box (L): 5
  Time in box, dark (D): 80
[1]; [5]
  Latent period L-D: 27
  Number of times standing erect within 5 min. period, dark box (D): 25
[1]; [6]
  Time in box, dark (D): 25
[1]; [7]
  Activity within 5 min period, dark box (D): 24
  Activity within 5 min period, light box (L): 73
[1]; [11]
  Number of times standing erect within 5 min. period, light box (L): 70

## c1cnc(N2CCN(CCCCn3cccc3)CC2)nc1 [Example 1, 1-{4-[4-(2-pyrimidinyl)-1-piperazinyl]-butyl}pyrrole]
[2]
  Activity % (inhibition of the conditioned avoidance response): 94%
  ED50: 32.4 mg/kg
[3]
  Activity % (norepinephrine antagonistic antihypertensive activity): 0%

## c1cnc(N2CCN(CCCCn3c4ccccc4c4ccccc43)CC2)nc1 [Example 2]
[2]
  Activity % (inhibition of the conditioned avoidance response): 37%
[3]
  Activity % (norepinephrine antagonistic antihypertensive activity): 0%

## c1cnc(N2CCN(CCCCn3ccc4ccccc43)CC2)nc1 [Example 3]
[2]
  Activity % (inhibition of the conditioned avoidance response): 74%
  ED50: 42.8 mg/kg
[3]
  Activity % (norepinephrine antagonistic antihypertensive activity): 25%

## O=C1c2ccccc2S(=O)(=O)N1CCCCN1CCN(c2ncccn2)CC1 [Ipsapirone]
[2]
  Activity % (inhibition of the conditioned avoidance response): 98%
[1]; [4]
  Activity within 5 min period, dark box (D): 80
  Activity within 5 min period, light box (L): 36
  Latent period L-D: 10
  Number of times standing erect within 5 min. period, dark box (D): 75
  Number of times standing erect within 5 min. period, light box (L): 21
  Time in box, dark (D): 35
[1]; [8]
  Activity within 5 min period, dark box (D): 85
  Activity within 5 min period, light box (L): 18
  Latent period L-D: 8
  Number of times standing erect within 5 min. period, dark box (D): 89
  Number of times standing erect within 5 min. period, light box (L): 11
  Time in box, dark (D): 62
[1]; [9]
  Activity within 5 min period, dark box (D): 88
  Activity within 5 min period, light box (L): 17
  Latent period L-D: 8
  Number of times standing erect within 5 min. period, dark box (D): 82
  Number of times standing erect within 5 min. period, light box (L): 15
  Time in box, dark (D): 90
[1]; [10]
  Activity within 5 min period, dark box (D): 98
  Activity within 5 min period, light box (L): 18
  Latent period L-D: 3
  Number of times standing erect within 5 min. period, dark box (D): 84
  Number of times standing erect within 5 min. period, light box (L): 9
  Time in box, dark (D): 70
[1]; induced by alcohol
  abstinence syndrome: inhibits the abstinence syndrome
[1]; induced by diazepam, cocaine and nicotine
  abstinence syndrome: maintains the abstinence syndrome

## CN1CCC[C@H]1c1cccnc1 [Nicotine]
[1]; mouse, in vivo
  Activity within 5 min period, dark box (D): 25
  Activity within 5 min period, light box (L): 70
  Latent period L-D: 26
  Number of times standing erect within 5 min. period, dark box (D): 23
  Number of times standing erect within 5 min. period, light box (L): 66
  Time in box, dark (D): 25
[1]; mouse, in vivo, po
  Activity within 5 min period, dark box (D): 147
  Activity within 5 min period, light box (L): 14
  Latent period L-D: 2
  Number of times standing erect within 5 min. period, dark box (D): 125
  Number of times standing erect within 5 min. period, light box (L): 10
  Time in box, dark (D): 78

## c1ccc(CC2=NCCN2)cc1 [Tolazoline, reference compound]
[3]
  Activity % (norepinephrine antagonistic antihypertensive activity): 100%
  ED50: 2.97 mg/kg
